“Also recorded” adds a separate entry of the source.
How the values were obtained:
[1] = test system: abca4 null mutant mouse; experiment: Effect of HPR on serum retinol, 14 days (Example 11); type: in vivo
Procedure: Initial studies began by examining the effect of HPR on serum retinol. Animals were divided into three groups and given either DMSO, 10 mg/kg HPR, or 20 mg/kg HPR for 14 days. At the end of the study period, blood was collected from the animals, sera were prepared and an acetonitrile extract of the serum was analyzed by reverse phase LC/MS. UV-visible spectral and mass/charge analyses were performed to confirm the identity of the eluted peaks. Sample chromatograms obtained from these analyses are shown: FIG. 1a.—extract from an abca4 null mutant mouse receiving HPR vehicle, DMSO; FIG. 1b.-10 mg/kg HPR; FIG. 1c.-20 mg/kg HPR. […] For 20 mg/kg HPR, serum retinol is decreased 72%, see FIG. 7. The steady state concentrations of retinol and HPR in serum (at 20 mg/kg HPR) were determined to be 2.11 μM and 1.75 μM, respectively.

[2] = target: RBP (Homo sapiens, UniProt P02753); experiment: Competition binding assay RBP-retinol/HPR by fluorescence quenching
Description: Based upon these findings, we sought to further explore the mechanism(s) of retinol reduction during HPR treatment. A tenable hypothesis is that HPR may displace retinol by competing at the retinol binding site on RBP. […] Therefore, one can measure displacement of retinol from the RBP holoprotein by observing decreases in both protein (340 nm) and retinol (470 nm) fluorescence. We performed a competition binding assay using RBP-retinol/HPR concentrations which were similar to those determined from the 14 day trial at 20 mg/kg HPR described above. […] In the control assays, decreases in retinol fluorescence were associated with concomitant increases in protein fluorescence, see FIG. 3a. This effect was determined to be due to temperature effects as the dissociation constant of RBP-retinol increases (decreased affinity) with […] at 37C. […] Increases of HPR beyond equimolar amounts relative to RBP holoprotein (e.g., 2.0 μM HPR to 1.0 μM RBP) will produce a population of RBP which is largely associated with HPR.

[3] = Ocular retinoid content after 7 days of HPR (HPLC); type: in vivo, mouse; conditions: mouse, RPE (retinal pigment epithelium), intraperitoneal, HPR 5-20 mg/kg/day i.p. in DMSO, dose-dependent, read-out: accumulation of HPR within the RPE
Procedure: (§1) In one study, wild-type mice were given varied doses of HPR (5-20 mg/kg/day, i.p. in DMSO) for 7 days. Control mice received only DMSO. Mice were maintained on a 12 h/12 h light/dark cycle throughout the treatment period. At the end of the study, the ocular retinoid content was determined by high-performance liquid chromatography (HPLC). Light-adapted, rather than dark-adapted, retinoid profiles were obtained so that a measure of retinoids could be obtained while the visual cycle was actively regenerating chromophore. […] This finding is in sharp contrast to data obtained from analysis of mice treated with 13-cis retinoic acid. […] Reduced 11cRDH activity would lead to reduced levels of 11-cis retinal and accumulation of 11-cis retinol. Free 11-cis retinol would be rapidly esterified via LRAT activity resulting in increased 11-cis retinyl esters. This effect of 13-cis retinoic acid on retinoid biosynthesis was also observed in rats in Sieving P A, et al., Proc Natl Acad Sci USA. 2001; 98(4): 1835-40.

[4] = test system: wild-type mice; experiment: Ocular retinoid content after 7 days of HPR (HPLC); type: in vivo, mouse; conditions: HPR 5-20 mg/kg/day i.p.
Procedure: as §1

[5] = test system: abca4 −/− mice; experiment: HPR and retinaldehyde content after 7 days, dark- and light-adapted; type: in vivo, mouse; conditions: HPR 10 mg/kg/day
Procedure: The effect of HPR on visual chromophore biosynthesis was examined in a separate study in which a […] of HPR (10 mg/kg/day) was administered to abca4 −/− mice over a 7-day period.

[6] = Steady-state retinoid levels and visual chromophore regeneration after 28 days of HPR; type: in vivo, mouse; conditions: abca4 -/- (knockout line; background strain not stated), mouse, RPE tissue, intraperitoneal, HPR 10 mg/kg, read-out: HPR present within RPE tissue
Procedure: (§2) Both steady-state retinoid levels and rates of visual chromophore regeneration were evaluated in abca4 −/− mice following a 28-day treatment period with 10 mg/kg HPR. Light-adapted levels of all visual cycle retinoids were reduced by ˜50% compared to control animals receiving only DMSO (FIG. 16A). Although HPR was present within RPE tissue (˜10 μM), the rate of rhodopsin regeneration (FIG. 16B) and removal of bleached photoproduct (Figure 16C) were not affected. The calculated time constant for regeneration of visual chromophore was nearly identical for both DMSO- and HPR-treated mice (0.37 h time constant to fully regenerate visual chromophore, FIG. 16D).
(§3) Panels D-F of FIG. 9 are electrophysiological measurements of rod function (panel D), rod and cone function (panel E) and recovery from photobleaching (panel F).

[7] = test system: abca4 −/− mice; experiment: as above; type: in vivo, mouse
Procedure: as §2, §3

[8] = target: interaction of TTR with RBP (Homo sapiens, UniProt P02753); conditions: in vitro; cited from earlier work

## CC1=C(/C=C/C(C)=C/C=C/C(C)=C/C(=O)Nc2ccc(O)cc2)C(C)(C)CCC1 [HPR, N-(4-hydroxyphenyl)retinamide]
[1]; 10 mg/kg HPR, 14 days, vs DMSO
  decrease of serum all-trans retinol: 40%
[1]; 20 mg/kg HPR, 14 days, vs DMSO
  decrease of serum retinol: 72%
[1]; at 20 mg/kg HPR
  steady state concentration of retinol in serum: 2.11 µM
[2]
  competitive binding of HPR to RBP: dose-dependent and saturable
[2]; physiological temperature (37C), protein (340 nm) and retinol (470 nm) fluorescence
  displacement of retinol from RBP-retinol holoprotein: efficiently displaces retinol
[3]
  concentration at 7 days: 4 to 6 µM
[4]
  differences in light-adapted retinoid levels: no significant differences
[5]
  effect on steady-state retinal levels or regeneration of visual chromophore: essentially no effect
[6]
  concentration at 28 days: ~10 µM
[7]; HPR 10 mg/kg
  removal of bleached photoproduct: not affected
[7]; HPR 10 mg/kg daily
  regeneration of visual chromophore (rate of rhodopsin regeneration): not affected; also recorded: does not affect; also recorded: normal
[7]; HPR 10 mg/kg, nearly identical for DMSO
  calculated time constant to fully regenerate visual chromophore: 0.37 h
[8]
  effect on interaction of TTR with RBP: interferes with the normal interaction of TTR with RBP

Source: patent US20070015827A1, “Methods and compositions for treating ophthalmic conditions via serum retinol, serum retinol binding protein (RBP), and/or serum retinol-RBP modulation” (Sytera, Inc., priority 2005, published 2007)
